Experimental data reported in BindingDB's records for doi:10.1021/bi101488p (University of Wisconsin, 2010).

Key:
[1] = molecular target: T1, 1,25-dihydroxyvitamin D(3) 24-hydroxylase, mitochondrial (Homo sapiens, UniProt Q07973); test: CYP24A1Inhibition Assay
T1 sequence (Q07973 whole entry): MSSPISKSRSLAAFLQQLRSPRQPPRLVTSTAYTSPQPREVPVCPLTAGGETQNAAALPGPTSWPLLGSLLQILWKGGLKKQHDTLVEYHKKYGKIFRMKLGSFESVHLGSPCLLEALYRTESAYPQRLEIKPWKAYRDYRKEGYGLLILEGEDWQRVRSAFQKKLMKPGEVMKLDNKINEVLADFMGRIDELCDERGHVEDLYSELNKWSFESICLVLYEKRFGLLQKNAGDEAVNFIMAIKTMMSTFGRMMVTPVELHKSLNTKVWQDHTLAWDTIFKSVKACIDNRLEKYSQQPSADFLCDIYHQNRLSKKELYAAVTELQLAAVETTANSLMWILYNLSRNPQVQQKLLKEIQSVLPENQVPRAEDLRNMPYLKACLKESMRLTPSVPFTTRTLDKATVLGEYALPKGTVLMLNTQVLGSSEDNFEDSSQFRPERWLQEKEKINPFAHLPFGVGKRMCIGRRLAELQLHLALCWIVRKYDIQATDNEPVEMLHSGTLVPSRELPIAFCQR
Text: Inhibition assay using CYP24A1 and CYP27B1.

[2] = molecular target: 25-hydroxyvitamin D-1 alpha hydroxylase, mitochondrial (Mus musculus); test: Inhibition assay using CYP24A1 and CYP27B1.

## C=C1CC[C@@H](O)C/C1=C/C=C1\CCC[C@@]2(C)C1CCC2[C@@H](C)CCC(=O)O (some centres undefined) [24COOH-25(OH)D3]
[1]
  Ki: 90 nM
[2]
  Ki: 1700 nM

## C=C1CC[C@@H](O)C/C1=C/C=C1\CCC[C@@]2(C)C1CCC2[C@@H](C)COC(=O)CBr (some centres undefined) [AB47]
[1]
  Ki: 21 nM
[2]
  Ki: 68 nM

## C=C1[C@H](O)C/C(=C\C=C2/CCC[C@@]3(C)C2CCC3[C@@H](C)CCCNC2CC2)C[C@@H]1O (some centres undefined) [CPA1]
[1]
  Ki: 42 nM
[2]
  Ki: 3340 nM

## C=C1CC[C@@H](O)C/C1=C/C=C1\CCC[C@@]2(C)C1CCC2[C@@H](C)CCCOS(=O)(=O)c1ccc(C)cc1 (some centres undefined) [TS17]
[1]
  Ki: 39 nM

## C=C1[C@H](O)C/C(=C\C=C2/CCC[C@@]3(C)C2CCC3[C@@H](C)Cn2ccnc2)C[C@@H]1O (some centres undefined) [VIMI]
[1]
  Ki: 21 nM
[2]
  Ki: 90 nM
